Laboratory results reported in the CheMixHub viscosity set.
± gives the uncertainty stated by the source.

Experiment: xn = mol fraction of the nth substance listed

CCOC=O + CC(C)O
viscosity [mPa·s], 100 kPa
Conditions	x1 = 0.0814	x1 = 0.1589	x1 = 0.2351	x1 = 0.3413	x1 = 0.4351	x1 = 0.5587	x1 = 0.6507	x1 = 0.7349	x1 = 0.8498	x1 = 0.9394
293.15 K	1.77 ± 0.04	1.33 ± 0.03	1.06 ± 0.02	0.82 ± 0.02	0.68 ± 0.02	0.57 ± 0.01	0.52 ± 0.01	0.48 ± 0.01	0.44 ± 0.01	0.42 ± 0.01
298.15 K	1.53 ± 0.03	1.18 ± 0.03	0.95 ± 0.02	0.76 ± 0.02	0.64 ± 0.02	0.54 ± 0.01	0.49 ± 0.01	0.46 ± 0.01	0.42 ± 0.01	0.4 ± 0.01
303.15 K	1.35 ± 0.03	1.06 ± 0.02	0.87 ± 0.02	0.7 ± 0.02	0.59 ± 0.01	0.51 ± 0.01	0.46 ± 0.01	0.43 ± 0.01	0.4 ± 0.01	0.38 ± 0.01
308.15 K	1.19 ± 0.03	0.95 ± 0.02	0.79 ± 0.02	0.65 ± 0.02	0.56 ± 0.01	0.48 ± 0.01	0.44 ± 0.01	0.41 ± 0.01	0.38 ± 0.01	0.36 ± 0.01
313.15 K	1.05 ± 0.02	0.85 ± 0.02	0.71 ± 0.02	0.59 ± 0.01	0.52 ± 0.01	0.45 ± 0.01	0.41 ± 0.01	0.39 ± 0.01	0.36 ± 0.01	0.34 ± 0.01
318.15 K	0.92 ± 0.02	0.75 ± 0.02	0.64 ± 0.02	0.54 ± 0.01	0.48 ± 0.01	0.42 ± 0.01	0.39 ± 0.01	0.36 ± 0.01	0.34 ± 0.01	0.32 ± 0.01
323.15 K	0.81 ± 0.02	0.67 ± 0.02	0.57 ± 0.01	0.49 ± 0.01	0.44 ± 0.01	0.38 ± 0.01	0.36 ± 0.01	0.33 ± 0.01	0.31 ± 0.01	0.3 ± 0.01

CCC(C)Br (configuration not stated) + CCCCO
viscosity [mPa·s], 101.3 kPa
Conditions	x1 = 0.1031	x1 = 0.2031	x1 = 0.3016	x1 = 0.4044	x1 = 0.5054	x1 = 0.5983	x1 = 0.7019	x1 = 0.8026	x1 = 0.9
298.15 K	2.035 ± 0.015	1.634 ± 0.012	1.325 ± 0.0098	1.097 ± 0.0082	0.9278 ± 0.007	0.8012 ± 0.0062	0.7037 ± 0.0056	0.6308 ± 0.0052	0.5835 ± 0.0049
313.15 K	1.426 ± 0.012	1.174 ± 0.0095	0.9794 ± 0.0078	0.8345 ± 0.0066	0.7206 ± 0.0058	0.6389 ± 0.0052	0.5736 ± 0.0048	0.523 ± 0.0044	0.4876 ± 0.0043

ClCCCl + CCO
viscosity [mPa·s], 101 kPa
Conditions	303.15 K	313.15 K	323.15 K
x1 = 0.1495	0.842 ± 0.084	–	–
x1 = 0.3026	0.736 ± 0.074	–	–
x1 = 0.4507	0.681 ± 0.068	–	–
x1 = 0.6007	0.662 ± 0.066	–	–
x1 = 0.752	0.659 ± 0.066	–	–
x1 = 0.8706	0.659 ± 0.066	–	–
x2 = 0.064	0.6974 ± 0.018	0.6126 ± 0.017	0.5529 ± 0.016
x2 = 0.1215	0.6779 ± 0.018	0.5938 ± 0.017	0.5336 ± 0.016
x2 = 0.2295	0.6654 ± 0.018	0.5787 ± 0.017	0.512 ± 0.016
x2 = 0.3279	0.6668 ± 0.017	0.5767 ± 0.016	0.5115 ± 0.016
x2 = 0.3912	0.6702 ± 0.017	0.5806 ± 0.016	0.5107 ± 0.016
x2 = 0.4726	0.6873 ± 0.018	0.5896 ± 0.016	0.5161 ± 0.016
x2 = 0.5989	0.7253 ± 0.018	0.6178 ± 0.017	0.536 ± 0.016
x2 = 0.752	0.7907 ± 0.018	0.6671 ± 0.017	0.5723 ± 0.016
x2 = 0.8819	0.8746 ± 0.019	0.7374 ± 0.018	0.628 ± 0.017

ClCCl + CCCCO
303.15 K, 101.3 kPa
Conditions	viscosity [mPa·s]
x2 = 0.036	0.4023 ± 0.011
x2 = 0.0601	0.4082 ± 0.011
x2 = 0.1127	0.4291 ± 0.011
x2 = 0.1672	0.4596 ± 0.012
x2 = 0.3142	0.5767 ± 0.015
x2 = 0.4391	0.7209 ± 0.019
x2 = 0.5585	0.9132 ± 0.024
x2 = 0.6635	1.143 ± 0.03
x2 = 0.7658	1.428 ± 0.038
x2 = 0.8429	1.684 ± 0.044
x2 = 0.9	1.89 ± 0.05
x2 = 0.9566	2.105 ± 0.056

ClCCl + CO
303.15 K, 101.3 kPa
Conditions	viscosity [mPa·s]
x1 = 0.0146	0.5071 ± 0.013
x2 = 0.0752	0.3905 ± 0.01
x2 = 0.1326	0.3907 ± 0.01
x2 = 0.1509	0.3917 ± 0.01
x2 = 0.2315	0.3988 ± 0.011
x2 = 0.3029	0.4078 ± 0.011
x2 = 0.374	0.42 ± 0.011
x2 = 0.407	0.4262 ± 0.011
x2 = 0.5161	0.4475 ± 0.012
x2 = 0.6525	0.4738 ± 0.013
x2 = 0.7656	0.4932 ± 0.013
x2 = 0.8581	0.5043 ± 0.013
x2 = 0.9182	0.5081 ± 0.013
x2 = 0.9595	0.5087 ± 0.013
